Measured values as given in PubChem BioAssay (NCI).
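Values below derive from 48-hour exposures of cells grown in 96-well plates, with endpoints linearly interpolated between the two concentrations bracketing the appropriate inhibition level. At the GI50, growth is halved. TGI denotes the concentration required for complete inhibition of growth.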

How the values were obtained:
Assay in all cases: DTP human tumour cell line panel, 48 h
[1] = test system: SK-MEL-28 melanoma
[2] = test system: UACC-257 melanoma
[3] = test system: LOX IMVI melanoma
[4] = test system: SF-539 CNS
[5] = test system: MDA-MB-435
[6] = test system: OVCAR-4 ovarian
[7] = test system: HCT-15 colon
[8] = test system: SR leukemia
[9] = test system: T-47D breast
[10] = test system: HOP-92 NSCLC

SMILES | GI50 [1] | TGI [1] | GI50 [2] | TGI [2] | GI50 [3] | TGI [3] | GI50 [4] | TGI [4] | GI50 [5] | TGI [5] | GI50 [6] | TGI [6] | GI50 [7] | TGI [7] | GI50 [8] | TGI [8] | GI50 [9] | TGI [9] | GI50 [10] | TGI [10]
CC(C)(C)CC(C)(C)N(CSc1ccc(Cl)cc1)CSc1ccc(Cl)cc1 | 1.99 µM | 5.74 µM | 1.85 µM | 6.18 µM | 0.337 µM | 1.06 µM | 1.23 µM | 2.56 µM | 1.45 µM | 4.05 µM | 1.74 µM | 9.88 µM | 2.29 µM | 11.5 µM | 1.23 µM | 5.51 µM | – | – | – | –
C=CC(=O)NCCOc1cccc(Nc2cc(NCCCNC(=O)C3CCC3)c(Br)cn2)c1 | 1.64 µM | 8.78 µM | 3.34 µM | > 25 µM | 0.776 µM | 5.4 µM | 0.568 µM | 2.21 µM | 2.49 µM | 6.03 µM | 1.26 µM | 10.7 µM | 1.38 µM | 23.3 µM | – | – | 4.49 µM | 22.7 µM | 0.826 µM | > 25 µM
CCCCCCCCCCCCOC1C(CNCC2OC3OC(C)(C)OC3C2NC(=O)Nc2ccc(C(F)(F)F)cc2)OC2OC(C)(C)OC21 (stereo not drawn) | 7.28 µM | 14.5 µM | 8.62 µM | 17.9 µM | 2.89 µM | 5.65 µM | 7.09 µM | 13.9 µM | 5.27 µM | 13.4 µM | 5.43 µM | 13.2 µM | 7.47 µM | 15 µM | – | – | 7.31 µM | 16.9 µM | 7.4 µM | 14.4 µM
COc1cc(CNc2nc3cc(N)cc(N)c3nc2-c2ccccc2)cc(OC)c1OC | 8.53 µM | 17.6 µM | 3.45 µM | 10.8 µM | 3.19 µM | 10.4 µM | 1.34 µM | 8.01 µM | 0.227 µM | 0.907 µM | – | – | 3.27 µM | 13.9 µM | 0.897 µM | > 50 µM | – | – | 1.21 µM | 3.12 µM
C=CC[N+]1(CCO)CCN=C1CCCCCCCCCCCCC (stereo not drawn) | 1.75 µM | 3.12 µM | 1.76 µM | 3.27 µM | 1.38 µM | 2.68 µM | – | – | 1.72 µM | 3.09 µM | 1.67 µM | 3.45 µM | – | – | – | – | 1.65 µM | 3.47 µM | – | –
COc1cccc2c1C(=O)c1c(O)c3c(c(O)c1C2=O)C[C@@](O)(C(=O)CO)C[C@@H]3OC1CC(OC(C)=O)C(OC(C)=O)C(C)O1 (stereo partly drawn) | 1.39 µM | 3.2 µM | 1.37 µM | 4.25 µM | 0.284 µM | > 20 µM | 0.267 µM | 1.9 µM | 1.27 µM | 4.63 µM | 2.24 µM | > 39.6 µM | 0.491 µM | 6.75 µM | – | – | 0.237 µM | 1.99 µM | 0.239 µM | –
COc1nc2c(cc1S(=O)(=O)c1ccccc1)CCc1c-2cnn1Cc1ccccc1 | > 100 µM | > 100 µM | 59.7 µM | > 100 µM | > 100 µM | > 100 µM | 17 µM | > 100 µM | > 100 µM | > 100 µM | 5.22 µM | > 100 µM | 7.99 µM | > 100 µM | – | – | 3.09 µM | 79.5 µM | – | –
NCCn1ccc(NC(c2ccccc2)(c2ccccc2)c2ccccc2)nc1=O | – | 35 µM | – | 36.2 µM | – | 30.5 µM | – | 31.3 µM | – | – | – | > 100 µM | – | > 100 µM | – | 46.2 µM | – | – | – | 27.4 µM
O=C(N[C@@H]1C=CCC[C@@H]1c1ccccc1)OCc1ccccc1 | – | 46.5 µM | – | 35.2 µM | – | 28.9 µM | – | 33.5 µM | – | – | – | 42.4 µM | – | 38.3 µM | – | 41.7 µM | – | – | – | 32.1 µM
C=CC1(c2ccccc2Cl)N/C(=C/OCC)CO1 (stereo not drawn) | – | > 100 µM | – | > 100 µM | – | 55.3 µM | – | > 100 µM | – | – | – | > 100 µM | – | > 100 µM | – | > 100 µM | – | – | – | > 100 µM
CN1C(=O)N(C)C2C1NN=c1s/c(=C\c3c[nH]c4ccccc34)c(=O)n12 (stereo not drawn) | 34.5 µM | > 100 µM | > 100 µM | > 100 µM | 0.0518 µM | > 100 µM | 0.0301 µM | 55.9 µM | 0.0162 µM | 0.0482 µM | – | > 100 µM | 0.0365 µM | > 100 µM | 0.0345 µM | > 100 µM | – | – | 0.36 µM | > 100 µM
NC1=NN(c2ccccc2)C(=O)C1/C(=N\NC(=O)c1cc2ccccc2cc1O)C(=O)Nc1nc([N+](=O)[O-])cs1 (stereo not drawn) | – | > 100 µM | – | 64.4 µM | – | 55.4 µM | – | 59.6 µM | – | – | – | > 100 µM | – | > 74.1 µM | – | 58.3 µM | – | – | – | 87.5 µM
Cc1ccc(/C=N/NS(=O)(=O)c2ccccc2)cc1 | – | > 100 µM | – | > 100 µM | – | > 100 µM | – | > 100 µM | – | – | – | > 100 µM | – | > 100 µM | – | > 100 µM | – | – | – | > 100 µM
O=C1NC2(CCCC2)/C(=N\O)C12CCCC2 | – | > 100 µM | – | > 100 µM | – | > 100 µM | – | > 100 µM | – | – | – | > 100 µM | – | > 100 µM | – | > 100 µM | – | – | – | > 100 µM
